13 molecules from US10858366B2 (priority 2016, dated 2020) can be followed below.

For experiment [1], the target named is RNP_CAL (PB2, PB1, PA, NP, influenza A Luciferase reporter in 293T cells) (Influenza A virus (strain swl A/California/04/2009 H1N1), UniProt C3W5S0). Kind of experiment: cell-based.
For experiment [2], the target named is truncated Influenza A/victoria/75 PA(1-209) (Influenza A virus (strain A/Victoria/3/1975 H3N2), UniProt P31343). Kind of experiment: Endonuclease Inhibition Assay (PA FP Assay). Format: binding. The following applies: fluorescence polarization, fluorescein-labeled probe. The method, then: Endonuclease Inhibition Assay (PA FP Assay)
Compounds were dissolved and serially diluted in 100% DMSO then 0.5 μl was transferred to 384-well plates. 50 nM truncated Influenza A/victoria/75 PA(1-209) was prepared in assay buffer (20 mM Tris, pH=7.5, 10 mM MgCl2, 0.01% Tween 20, 100 mM NaCl and 1 mM DTT) and 20 ul was added to each well of assay plate with compounds, centrifuged for 1 min at 1000 rpm and incubated for 30 min at room temperature. 20 μl of 20 nM fluorescein-labeled probe [5-(4-(3-carboxy-3-oxopropanoyl)-4-(4-chlorobenzyl)piperidine-1-carbonyl)-2-(6-hydroxy-3-oxo-3H-xanthen-9-yl)benzoic acid] in assay buffer was then added, centrifuged for 1 min at 1000 rpm and incubated for 60 min at room temperature.
Fluorescence polarization was measured on Perkin Elmer Envision plate reader with excitation at 480 nm and emission at 535 nm and reported in millipolarization units (mP). IC50 values were determined relative to wells containing 125 uM of a compound known to bind to the active site of PA and uninhibited wells containing 1.25% DMSO.
On the technique in general: Polarisation of emitted light reports the rotation of a fluorescent probe.

Consider `O=c1cnn2c(c1O)-c1nccn1C[C@@H]2[C@@H](c1ccc(F)cc1)c1cccc(F)c1` [Example 24, (S)-6-((S)-(3-fluorophenyl)(4-fluorophenyl)methyl)-11-hydroxy-5,6-dihydro-10H-imidazo[2′,1′:3,4]pyrazino[1,2-b]pyridazin-10-one], for which the EC50 – broadly, the midpoint of the concentration-response curve – in experiment [1] came out at 36 nM. For the same molecule, the IC50 (as a rule, the concentration at which inhibition is half-maximal) in experiment [2] amounted to 9 nM.

In experiment [1], `O=c1cnn2c(c1O)-c1nccn1C[C@@H]2[C@@H](c1ccc(F)cc1)c1ccc(Cl)cc1` [Example 33, (S)-6-((S)-(4-chlorophenyl)(4-fluorophenyl)methyl)-11-hydroxy-5,6-dihydro-10H-imidazo[2′,1′:3,4]pyrazino[1,2-b]pyridazin-10-one] gave a 50% effective concentration (EC50) of 110 nM. The molecule also displayed an IC50 in experiment [2] of 20 nM.

In the case of `Cc1cccc([C@H](c2ccc(F)cc2)[C@H]2Cn3ccnc3-c3c(O)c(=O)cnn32)c1` [Example 38, (S)-6-((S)-(4-fluorophenyl)(m-tolyl)methyl)-11-hydroxy-5,6-dihydro-10H-imidazo[2′,1′:3,4]pyrazino[1,2-b]pyridazin-10-one], the EC50 in experiment [1] worked out at 49 nM. This molecule gave an IC50 in experiment [2] of 40 nM.

`O=c1cnn2c(c1O)-c1nccn1C[C@@H]2[C@H](c1ccc(F)cc1)c1ccc(F)cc1Br` [Example 39, (S)-6-((R)-(2-bromo-4-fluorophenyl)(4-fluorophenyl)methyl)-11-hydroxy-5,6-dihydro-10H-imidazo[2′,1′:3,4]pyrazino[1,2-b]pyridazin-10-one] gave an EC50 in experiment [1] of 33 nM. Also, the 50% inhibitory concentration (IC50) in experiment [2] came out at 10 nM.

In experiment [1], `Cc1ccccc1[C@H](c1ccc(F)cc1)[C@H]1Cn2ccnc2-c2c(O)c(=O)cnn21` [Example 40, (S)-6-((S)-(4-fluorophenyl)(o-tolyl)methyl)-11-hydroxy-5,6-dihydro-10H-imidazo[2′,1′:3,4]pyrazino[1,2-b]pyridazin-10-one] yielded an EC50 of 32 nM. This molecule registered a half-maximal inhibitory concentration (IC50) in experiment [2] of 20 nM.

For `N#Cc1cccc([C@H](c2ccc(F)cc2)[C@H]2Cn3ccnc3-c3c(O)c(=O)cnn32)c1` [Example 43, 3-((S)-(4-fluorophenyl)((S)-11-hydroxy-10-oxo-5,6-dihydro-10H-imidazo[2′,1′:3,4]pyrazino[1,2-b]pyridazin-6-yl)methyl)benzonitrile], in experiment [1], a half-maximal effect (EC50) was put at 39 nM. The same molecule returned an IC50 in experiment [2] of 20 nM.

For `N#Cc1cccc([C@H](c2cccc(F)c2)[C@H]2Cn3ccnc3-c3c(O)c(=O)cnn32)c1` [Example 46, 3-((R)-(3-fluorophenyl)((S)-11-hydroxy-10-oxo-5,6-dihydro-10H-imidazo[2′,1′:3,4]pyrazino[1,2-b]pyridazin-6-yl)methyl)benzonitrile], the response in experiment [1] was half-maximal at 64 nM (EC50). This molecule also registered an IC50 in experiment [2] of 50 nM.

For `O=c1ccn2c(c1O)-c1ncc(-c3cn[nH]c3)n1C[C@@H]2C(c1ccccc1)c1ccccc1` [Example 52, (S)-6-benzhydryl-11-hydroxy-3-(1H-pyrazol-4-yl)-5,6-dihydro-10H-imidazo[1,2-a]pyrido[2,1-c]pyrazin-10-one], in experiment [1], a half-maximal effect (EC50) was put at 8300 nM. The concentration for half-maximal inhibition (IC50) in experiment [2] was determined as 8 nM.

In the case of `O=c1ccn2c(c1O)-c1ncc(-c3ccccc3)n1C[C@@H]2C(c1ccccc1)c1ccccc1` [Example 53, (S)-6-benzhydryl-11-hydroxy-3-phenyl-5H-imidazo [1,2-a] pyrido[2,1-c]pyrazin-10(6H)-one], the EC50 in experiment [1] was determined as 3000 nM. Further, inhibition in experiment [2] was half-maximal at 60 nM (IC50).

Turning to `COCc1cnc2n1C[C@H](C(c1ccccc1)c1ccccc1)n1ccc(=O)c(O)c1-2` [Example 56, (S)-6-benzhydryl-11-hydroxy-3-(methoxymethyl)-5H-imidazo [1,2-a]pyrido[2,1-c]pyrazin-10(6H)-one], a half-maximal effect in experiment [1] (EC50) was put at 92 nM. Moreover, in experiment [2], half-maximal inhibition (IC50) was put at 100 nM.

In experiment [1], `O=c1ccn2c(c1O)-c1ncc(C(F)F)n1C[C@@H]2C(c1ccccc1)c1ccccc1` [Example 57, (S)-6-benzhydryl-3-(difluoromethyl)-11-hydroxy-5H-imidazo[1,2-a]pyrido[2,1-c]pyrazin-10(6H)-one] came in with an EC50 of 180 nM. The IC50 in experiment [2] amounted to 40 nM.

As for `CC1(C)N(C(c2ccccc2)c2ccccc2)n2ccc(=O)c(O)c2-c2nccn21` [Example 75, 6-benzhydryl-11-hydroxy-5,5-dimethyl-5,6-dihydro-10H-imidazo[1,2-d]pyrido[2,1-f][1,2,4]triazin-10-one], it took 300 nM to reach a half-maximal effect in experiment [1] (EC50). The molecule also yielded an IC50 in experiment [2] of 100 nM.

`CCC1N(C(c2ccccc2)c2ccccc2)n2ccc(=O)c(O)c2-c2nccn21` (centres unmarked) [Example 78, 6-benzhydryl-5-ethyl-11-hydroxy-5,6-dihydro-10H-imidazo[1,2-d]pyrido[2,1-f][1,2,4]triazin-10-one] displayed an EC50 in experiment [1] of 180 nM. For the same molecule, half-maximal inhibition in experiment [2] (IC50) was put at 40 nM.
